The values below come from US20150064234A1, “4-AMINOPYRIDINE AS A THERAPEUTIC AGENT FOR SPINAL MUSCULAR ATROPHY” (THE TRUSTEES OF COLUMBIA UNIVERSITY IN THE CITY OF NEW YORK, priority 2012, published 2015).

“Also recorded” adds a separate entry of the source.

One series has as its system Drosophila smn mutants. Description: Rescue of Drosophila smn mutant phenotypes by K+ channel antagonists. As to conditions: treatment with K+ channel antagonist; 4-(dimethylamino)pyridine data not shown.
Series [1] deals with smn^x7/smn^x7 mutant larvae. Put plainly: NMJ electrophysiology (eEPSP), smn mutant larvae. It counts as in vivo, Drosophila.
Series [2] deals with smn^x7/smn^x7 mutant larvae. Put plainly: Spontaneous motor rhythm recording, smn mutant larvae. It counts as in vivo, Drosophila.
The test system of series [3] is Canton S (CS) control larvae.
Series [4] relates to canine hereditary motor neuron disease. As to conditions: canine hereditary motor neuron disease (Pinter et al., 1997); cited from earlier work.
A further series relates to MS patients. The following applies: cited from earlier work.
Series [5] concerns Canton S (CS) control larvae. This is another data set of the same source.
In series [6] the test system is smn^x7/smn^x7 mutant larvae. Put plainly: Muscle area measurement, smn mutant larvae cultured on 4-AP.
The test system of series [7] is smn^x7/smn^x7 mutant larvae. Description: Larval locomotion assay, smn mutant larvae. It counts as in vivo, Drosophila.
The subject of series [8] is Canton S (CS) control larvae. Put plainly: Muscle area measurement, control larvae cultured on 4-AP.
For a further series, the system named is wild-type larvae. Description: Titration of 4-AP in larval media for tolerability.
Series [9] deals with other sodium, calcium, and potassium conductances. As to conditions: at concentration of 1 mM; cited from earlier work.
For a further series, the system named is Shaker channels. The following applies: at concentration of 1 mM; cited from earlier work.
Series [10] concerns Canton S (CS) control larvae. The source holds these as a separate data set.
The next series has as its system tetrodotoxin toxicity. As to conditions: in vivo; cited from earlier work.
Where [11] appears, read: smn mutants, 2 mM 4-AP, compared with 4-AP treated controls.
Setting [12] is: smn^x7/smn^x7 larvae treated with 2 mM 4-AP, ± SEM.
Setting [13] is: CS control larvae treated with 2 mM 4-AP, ± SEM.
The mark [14] stands for this setting: control animals, 2 mM 4-AP, P<0.01.

Turning to `CN(C)c1ccncc1` [4-(dimethylamino) pyridine], in the series on Drosophila smn mutants, the “effect on Drosophila smn mutant phenotypes” value is reported as “rescued”.

With `Nc1ccncc1` [4-AP, 4-aminopyridine], the “reduction of increased NMJ EPSP amplitude” value in series [1] (smn mutants treated with 2 mM 4-AP, P<0.001) was determined as 27%. In addition, the “effect on NMJ neurotransmitter release / eEPSP amplitude” value in series [1] (setting [11]) was “corrects; also recorded: fully corrected”. The eEPSP amplitude was determined as 32.40 ± 2.48 mV in series [1] (setting [12]) and 26.67 ± 2.91 mV in series [5] (setting [13]). For the same compound, the “remaining increase in inter-spike interval above controls treated with 4-AP” value in [2] (smn mutants grown on 2 mM 4-AP media, p<0.001) is listed as 31%. For the same compound, the “effect on defects in motor rhythm” value in [2] (smn mutants, 2 mM 4-AP) is “substantially improved; also recorded: substantially corrects; also recorded: fully corrected”. Besides, the figures for the Inter-spike interval in series [2] (setting [12]) and in series [3] (setting [13]) were 89.98 ± 4.98 ms and 68.89 ± 4.23 ms, respectively. For the same compound, the “effect on motor rhythm” value in series [3] (control animals, 2 mM 4-AP) is reported as “inhibits”. For the same compound, the “decrease of rhythmic motor activity” value in [3] (setting [14]) was 40%. For the same compound, the “effect on Drosophila smn mutant phenotypes” value in the series on Drosophila smn mutants is listed as “positively benefitted; also recorded: rescued”. Moreover, the “effect on muscle twitch tension” value in series [4] was “can improve”. The “patients with clinically important motor and visual improvements” value with MS patients (17 temperature-sensitive MS patients, 7.5 to 52.5 mg in one to three daily doses, 1 to 5 days, thirteen of 17) is 76%. In addition, the “side effects” value with MS patients (17 temperature-sensitive MS patients, 7.5 to 52.5 mg) is “No serious side effects”. Besides, in the series with MS patients (average 8.53-hour treatment-observation period), the “mean duration of improvements for two consecutive doses” value is 7.07 h. The “initial responders with long-term benefits” value with MS patients (long-term study (32 months)) is given as 80-90%. Further, the “duration of improvements as share of treatment-observation period” value in the series on MS patients (two consecutive doses, average 8.53-hour period) was 83%. Besides, the “reduction of NMJ eEPSP amplitudes” value in series [5] (control animals, 2 mM 4-AP, P<0.001) is given as 21%. In addition, the “increase of muscle surface area compared to untreated smn mutants” value in series [6] (smn mutants grown on 2 mM 4-AP media, P<0.001) is listed as 66%. In addition, the “effect on muscle size” value in series [6] (smn mutants, 2 mM 4-AP) is reported as “increases; also recorded: significantly increased”; in series [8] (control / wild-type animals, 2 mM 4-AP) it was “no effect; also recorded: does not alter; also recorded: did not affect”. Moreover, the “Muscle 6 area” value in series [6] (smn^x7/smn^x7 larvae treated with 2 mM 4-AP throughout larval period, ± SEM) is 29.60 ± 3.09 ×10^3 × μm^2; in series [8] (CS control larvae treated with 2 mM 4-AP throughout larval period, ± SEM) it was 38.08 ± 3.49 ×10^3 × μm^2. For the same compound, the increase of locomotion in series [7] (smn mutants grown on 2 mM 4-AP media, P<0.05) worked out at 55%. Further, the “effect on locomotion” value in series [7] (setting [11]) is “corrects; also recorded: significantly increased”. In addition, the Locomotion in [7] (setting [12]) turned out to be 2.65 ± 0.10 cm/min; in series [10] (setting [13]), 3.06 ± 0.40 cm/min. The “maximum dosage tolerated without lethality” value in the series on wild-type larvae (added to larval media, wild-type larvae) worked out at 2 mM. The “toxicity at maximum tolerated dose” value in the series with wild-type larvae (control animals, 2 mM throughout larval period) was “mild systemic toxicity”. Also, the “effect on other sodium, calcium, and potassium conductances” value in series [9] was “without significant effect”. Also, the “inhibition of Shaker channels” value in the series on Shaker channels was “selectively and reversibly inhibits”. In addition, the “reduction of larval locomotion” value in series [10] (setting [14]) is 35%. Besides, the “effect on tetrodotoxin toxicity” value in the series on tetrodotoxin toxicity is “reverse tetrodotoxin toxicity”.
